Laboratory results as given in article PMC1568117 (Environmental Health Perspectives, 1989).

What was measured:
F344/N rats = details: week 92
B6C3F1 mice = details: week 91

## c1ccccc1 [benzene]
F344/N rats
  Survival in all groups: greater than 60%
B6C3F1 mice
  Survival in all groups: greater than 60%
